Measured values: PMC10318822, “Phase 1 dose-escalation study to evaluate the safety, tolerability, pharmacokinetics, and anti-tumor activity of FCN-159 in adults with neurofibromatosis type 1-related unresectable plexiform neurofibromas” (BMC Medicine, 2023)
Entries after “also recorded” stand apart in the source; their conditions may differ.

Tests used:
[1] = system: patients with NF1-related PN with tumor pain; assay: Pain assessed by 11-point numerical rating scale (NRS-11); assay type: in vivo, human
Protocol: Efficacy was assessed by radiologic scans and clinical assessment.

[2] = Plasma pharmacokinetics of FCN-159, non-compartmental analysis; assay type: in vivo, human; settings: for AUCtau / CLss/F / Cavg,ss / Cmax,ss / Cmin,ss / ARAUC0-t / ARCmax / AUC0-t / AUC0-∞ / CL/F / Cmax / T1/2 / Vd/F: Geomean; for ARAUC0-t: AUC0-t (steady state) / AUC0-t; for ARCmax: Cmax (steady state) / Cmax; for Tmax: median
Protocol: In order to study the PK characteristics of FCN-159 in plasma, blood samples were collected pre-dose and 0.5, 1, 2, 3, 4, 6, and 10 h post dose on days 1 and 28 of cycle 1, and pre-dose only on days 2, 8, and 15 of cycle 1 and day 1 of cycle 2. Plasma PK parameters of FCN-159 in each dose group were analyzed with standard non-compartmental PK methods using Phoenix WinNonlin, v8.2. PK parameters included area under the curve (AUC)(0-last), AUC(0-∞), maximum plasma concentration (Cmax), time to maximum plasma concentration (Tmax), half-life (T1/2), oral clearance (CL/F), and volume of distribution (Vd/F) for the single-dose regimen and AUC(0-tau), Cmax, Tmax, minimum steady-state plasma concentration (Css,min), mean steady-state plasma concentration (Css, avg), accumulation ratio for AUC (ARAUC), and apparent oral clearance at steady state (CLss/F) for the multiple dose regimen.
Data were summarized using descriptive statistics.
Dose proportionality is assessed by fitting the relationship of the ln-transformed PK parameters (Cmax, AUC) to the ln-transformed dose using a power model loge(Y)=α+βloge(Dose)+ε.

CYP3A4 = system: CYP3A4; set-up: method as in PMID 36755948; settings: in vitro study; cited from earlier work
[3] = system: MAPK pathway (phosphorylation of MEK kinase and intracellular ERK); set-up: method as in doi:10.1158/1538-7445.AM2020-1951; settings: human colon cancer cells; preventing phosphorylation of MEK kinase and intracellular ERK; cited from earlier work
[4] = system: RAS-mutant tumor cell lines; set-up: method as in doi:10.1158/1538-7445.AM2020-1951; settings: selected RAS-mutant tumor cell lines; cited from earlier work
[5] = system: xenograft models (including human melanoma A375); set-up: method as in doi:10.1158/1538-7445.AM2020-1951; settings: nude mouse xenograft models (including human melanoma A375); cited from earlier work
[6] = system: patients with advanced NRAS mut+ melanoma; set-up: method as in PMID 36113242; settings: cited from earlier work
[7] = set-up: method as in PMID 36113242; settings: patients with NRAS mut+ melanoma; cited from earlier work
[8] = set-up: method as in PMID 36627544; settings: healthy volunteers, compared with fasted state; cited from earlier work

Cn1c(=O)c(F)c(Nc2ccc(I)cc2F)c2c(=O)n(C3CC3)nc(-c3cccc(NS(=O)(=O)C4CC4)c3)c21 [FCN-159]
Patients with reduction in pain intensity of at least 2 points ([1]; NRS-11 score ≥ 2 at baseline (16/22), cycles 4 and 5, as of 9 August 2022): 72.7%
Average decrease in pain scores ([1]; across all patients, as of 9 August 2022): 2.4 points
Patients achieving complete pain relief at least once (score reduced to 0) ([1]; as of 9 August 2022): 13 patients
Mean pain score reduction ([1]; dose group of 8 mg): 2.5 points
Patients achieving meaningful pain improvement ([1]; dose group of 8 mg (15/20)): 75%
Dose proportionality of exposure ([2]; Cmax and AUCtau at steady state 4–8 mg, PK profile between 4 and 12 mg): approximately linear; also recorded: roughly dose proportional
Median Tmax ([2]; across all dosing regimens): 1.21 to 2.18 h
Mean accumulation ratio of AUC ([2]; from each cohort): 1.5–2.0
AUCtau ([2]; multiple dose, 4 mg, N 3): 392 ng·h/mL
CLss/F ([2]; multiple dose, 4 mg, N 3): 10.2 L/h
Cavg,ss ([2]; multiple dose, 4 mg, N 3): 16.3 ng/mL
Cmax,ss ([2]; multiple dose, 4 mg, N 3): 45.0 ng/mL
Cmin,ss ([2]; multiple dose, 4 mg, N 3): 8.54 ng/mL
ARAUC0-t ([2]; multiple dose, 4 mg, N 3): 1.56
ARCmax ([2]; multiple dose, 4 mg, N 3): 1.25
Tmax ([2]; multiple dose, 4 mg, N 3): 1.92 h
AUCtau ([2]; multiple dose, 6 mg, N 4): 532 ng·h/mL
CLss/F ([2]; multiple dose, 6 mg, N 4): 11.3 L/h
Cavg,ss ([2]; multiple dose, 6 mg, N 4): 22.2 ng/mL
Cmax,ss ([2]; multiple dose, 6 mg, N 4): 52.2 ng/mL
Cmin,ss ([2]; multiple dose, 6 mg, N 4): 12.2 ng/mL
ARAUC0-t ([2]; multiple dose, 6 mg, N 4): 2.03
ARCmax ([2]; multiple dose, 6 mg, N 4): 1.37
Tmax ([2]; multiple dose, 6 mg, N 4): 1.24 h
AUCtau ([2]; multiple dose, 8 mg, N 7): 723 ng·h/mL
CLss/F ([2]; multiple dose, 8 mg, N 7): 11.1 L/h
Cavg,ss ([2]; multiple dose, 8 mg, N 7): 30.1 ng/mL
Cmax,ss ([2]; multiple dose, 8 mg, N 7): 82.5 ng/mL
Cmin,ss ([2]; multiple dose, 8 mg, N 7): 15.4 ng/mL
ARAUC0-t ([2]; multiple dose, 8 mg, N 7): 1.75
ARCmax ([2]; multiple dose, 8 mg, N 7): 1.36
Tmax ([2]; multiple dose, 8 mg, N 7): 1.50 h
AUC0-t ([2]; single dose, 4 mg, N 3): 250 ng·h/mL
AUC0-∞ ([2]; single dose, 4 mg, N 3): 370 ng·h/mL
CL/F ([2]; single dose, 4 mg, N 3): 10.8 L/h
Cmax ([2]; single dose, 4 mg, N 3): 36.0 ng/mL
T1/2 ([2]; single dose, 4 mg, N 3): 16.2 h
Vd/F ([2]; single dose, 4 mg, N 3): 253 L
Tmax ([2]; single dose, 4 mg, N 3): 1.43 h
AUC0-t ([2]; single dose, 6 mg, N 4): 262 ng·h/mL
AUC0-∞ ([2]; single dose, 6 mg, N 4): 388 ng·h/mL
CL/F ([2]; single dose, 6 mg, N 4): 15.4 L/h
Cmax ([2]; single dose, 6 mg, N 4): 38.1 ng/mL
T1/2 ([2]; single dose, 6 mg, N 4): 11.4 h
Vd/F ([2]; single dose, 6 mg, N 4): 254 L
Tmax ([2]; single dose, 6 mg, N 4): 1.48 h
AUC0-t ([2]; single dose, 8 mg, N 8): 453 ng·h/mL
AUC0-∞ ([2]; single dose, 8 mg, N 8): 661 ng·h/mL
CL/F ([2]; single dose, 8 mg, N 8): 12.1 L/h
Cmax ([2]; single dose, 8 mg, N 8): 64.2 ng/mL
T1/2 ([2]; single dose, 8 mg, N 8): 15.4 h
Vd/F ([2]; single dose, 8 mg, N 8): 269 L
Tmax ([2]; single dose, 8 mg, N 8): 1.21 h
AUC0-t ([2]; single dose, 12 mg, N 4): 1050 ng·h/mL
AUC0-∞ ([2]; single dose, 12 mg, N 4): 1330 ng·h/mL
CL/F ([2]; single dose, 12 mg, N 4): 9.03 L/h
Cmax ([2]; single dose, 12 mg, N 4): 147 ng/mL
T1/2 ([2]; single dose, 12 mg, N 4): 11.7 h
Vd/F ([2]; single dose, 12 mg, N 4): 153 L
Tmax ([2]; single dose, 12 mg, N 4): 2.18 h
Metabolism (CYP3A4): metabolized primarily by CYP3A4
Effect on downstream MAPK pathway [3]: blocks the downstream MAPK pathway
Cell proliferation [4]: inhibiting cell proliferation
Tumor growth [5]: Anti-tumor activity was observed
DLTs or SAEs ([6]; 6 mg or lower, as of October 20, 2020, dose escalated from 0.2 mg to 15 mg): no DLTs or SAEs were observed
Tolerability ([6]; first-in-human study, NRAS mut+ melanoma): well tolerated
RP2D ([6]; phase 1a study, advanced NRAS mut+ melanoma): 12 mg
Mean T1/2 [7]: 32 to 57 h
Food effect on pharmacokinetic profile [8]: food did not affect the pharmacokinetic profile
